“Also recorded” adds a separate entry of the source.

The subject of test [1] is WNT16B promoter. Kind of test: WNT16B promoter luciferase reporter assay. To be noted: compared to untreated cells. The format is cell-based, human. From the text:
The immediate 5′ upstream sequences containing putative NF-κB binding elements of the WNT16B gene were amplified from genomic DNA extracted from PSC27 cells by a DNeasy Blood and Tissue kit (QIAGEN). PCR products were cloned into pCR2.1-TOPO vector (Invitrogen) and each insert was sequenced for confirmation. PCR fragments were then double-digested and subcloned into a reporter luciferase vector pGL4.22 vector. Constructs containing one or multiple mutant NF-κB binding sites were generated from the reporter vector series by site-directed mutagenesis. The NAT11-Luc2CP-IRES-nEGFP control construct that contains large copy numbers of NF-κB binding sequences and an optimized IL-2 minimal promoter as part of NFκB-activated transgene (NAT) system was kindly provided by Dr. Hatakeyama (Hokkaido University). All constructs were confirmed by DNA sequencing in both directions. Reporter vectors were co-transfected with pRL-TK vector for transfection efficiency controls and internal normalization for gene expression measurements. Cells were either treated with 20 ng/ml TNF-α for 90 min, exposed to 10 Gy γ-irradiation or 1 μM Mitoxantrone for 1 day. […] Luciferase activity was measured using the Luciferase Assay System and normalized luciferase activities were calculated as light units normalized to renilla luciferase activity present in each specimen.
A general note: A reporter such as luciferase makes a cellular process visible.

For test [2], the system named is prostate cancer cells. Kind of test: Proliferation of prostate cancer cells in fibroblast conditioned medium. Type of test: cell-based, human. As to conditions: cell numbers 72 hours after treatment. On the procedure:
The cultures were incubated for 3 days after which cells were detached with trypsin and the total cell number was determined by direct counting with hemacytometer. The PSC27/BPH1-GFP proportion was determined on a FACScan using GFP fluorescence as a marker for BPH1-GFP cells. […] The supernatant was harvested, filtered, concentrated and either stored frozen at −80° C. or applied immediately. BPH1-GFP, PC3 and other cell lines were seeded in conditioned medium or fresh DMEM+0.5% FBS, and grown for specific time periods and the total number of cells was determined by direct counting. All assays were performed at least three times and reported as mean values. Assays of cell proliferation were performed with the CellTiter96® AQueous One Solution Cell Proliferation Assay (MTS) with signals captured using a 96-well plate reader or by direct counting using a hemacytometer. […] Migrating or invading cells in the bottom chambers were stained and plate absorbance was recorded at 485/520 nm emission. Each assay was performed in triplicate and measured at 24 hour time points over 3 days and presented as the average absorbance of migrating cells and invading cells, with human HeLA cervical cancer cell line (ATCC) used as a reference positive control. […]

The subject of test [3] is PC3 cells. Kind of test: Caspase 3/7 apoptosis assay of PC3 cells exposed to MIT. The format is cell-based, human. As to conditions: 24 hour of MIT exposure (IC50). The text has this: For apoptosis assays, 0.2×10^6 PC3 cells were dispensed into 6-well culture plates and co-cultured with media conditioned from PSC27 sublines. […] For the morphological analysis, bright field pictures were taken for PC3 cells with inverted phase-contrast microscopy.

The subject of test [4] is prostate cancer cells. Kind of test: Trans-well invasion of prostate cancer cells in fibroblast conditioned medium. The format is cell-based, human. As to conditions: 24 h of treatment. As for the experimental part:
All assays were performed at least three times and reported as mean values. Assays of cell proliferation were performed with the CellTiter96® AQueous One Solution Cell Proliferation Assay (MTS) with signals captured using a 96-well plate reader or by direct counting using a hemacytometer. For trans-well migration and invasion assays, serum-starved cells in serum-free medium were added to the top chambers of Cultrex 24-well Cell Migration Assay plates (8 μm size) coated with or without basement membrane extract (BM) prepared as 0.5× of stock solution. CM from fibroblasts or regular epithelial media containing 10% fetal calf serum (FCS) were added to the bottom chambers. Migrating or invading cells in the bottom chambers were stained and plate absorbance was recorded at 485/520 nm emission. Each assay was performed in triplicate and measured at 24 hour time points over 3 days and presented as the average absorbance of migrating cells and invading cells, with human HeLA cervical cancer cell line (ATCC) used as a reference positive control. […] Luciferase assays were performed using a Dual-Luciferase Reporter Assay kit, and fold induction for each cell line was calculated as normalized relative light units of TOPFLASH divided by those of FOPFLASH. […]

Test [5] concerns epithelial cells. As to the kind of experiment: EMT-associated gene/protein expression in epithelial cells exposed to WNT16B conditioned medium. Type of test: cell-based, human. To be noted: epithelial cells in WNT16B fibroblast CM.
Test [6] deals with prostate cancer cells. As to the kind of experiment: Chemoresistance (viability) assay with MIT in fibroblast conditioned medium. The format is cell-based, human. As for the experimental part:
Chemoresistance assays were performed using epithelial cells cultured with either DMEM and low serum (0.5% FCS) (abbreviated as “DMEM”), or conditioned medium (CM) generated from PSC27, […] or OVF28901 cells expressing vector controls, WNT16B, or siRNAs. […] Cell viability was then assayed, and the percentage of viable cells was calculated by comparing each experiment to vehicle-treated cells. Each assay was repeated a minimum of 3 times with results reported as mean±s.e.m. For chemoresistance assays, various neoplastic epithelial cells were cultured with either DMEM of low serum (0.5% FBS) only (abbreviated as “DMEM”), or CM generated from PSC27, HBF1023 or OVF28901 in various states (e.g., WNT16B overexpression, WNT16B knockdown, irradiated). […] Cell viability was assayed by MTS or direct counting with trypan blue, and the percentage of viable cells was calculated by normalizing absorbance of each experiment to untreated cells. To assess the influence of WNT16B across a range of MIT concentrations, a series of drug concentrations were applied bracketing the IC50 dose, with percent survival plotted against MIT dose at a 3-day time point. […] Luciferase assays were performed using a Dual-Luciferase Reporter Assay kit, and fold induction for each cell line was calculated as normalized relative light units of TOPFLASH divided by those of FOPFLASH. […]

Test [7] relates to primary prostate fibroblasts (PSC27 cells).
Protocol: After treatment, the cells were rinsed 3 times with PBS and left to recover for 3 days in PSC medium.
Cells growing on coverslips were rinsed, subjected to fixation in 4% paraformaldehyde and permeabilization with 0.1% Triton-X100 prior to immunostaining Primary mouse monoclonal anti-phospho-Histone H2A.X (Ser139) (clone JBW301) and secondary antibody Alexa Fluor® 488 (or 594)-conjugated F(ab′)2 goat anti-mouse IgG were sequentially applied. Nuclei were counterstained with 2 μg/ml of 4′,6-diamidino-2-phenylindole (DAPI) and coverslips were mounted onto glass slides. Upon visual examination of the DNA damage extent with immunofluorescence microscopy, DDR foci were recorded with a 4-category counting strategy, namely 4 classes: 0 foci, 1 to 3 foci, 4 to 10 foci, and >10 foci. Data from each cell line/treatment were averaged from a pool of 3 independent fields counting 100 nuclei per pool.
Test [8] has as its system PC3 cells. As to the kind of experiment: In vivo chemoresistance study: subrenal capsule xenografts treated with three cycles of MIT. Also noted: species or system mouse. As for the experimental part: All animal studies were performed in accordance with protocols approved by the Institutional Animal Care and Use Committee (IACUC) of Fred Hutchinson Cancer Research Center, and were carried out in accordance with the NIH Guide for laboratory animals. Mouse care/welfare and veterinary oversight were provided by the center animal care. ICR SCID mice (Taconic, Inc.) at an age of approximately 6 weeks (25 g body weight) were used. Rat tail collagen (high concentration, type I) was prepared before the ice-cold collagen solution was neutralized and adjusted to the proper osmolarity by adding a mixture of NaOH and ×10 PBS. To prepare tissue recombinants, fibroblasts (PSC27 strain) and epithelial cells (PC3, BPH1 or MDA-MB-231) were mixed at a ratio of 1:1, with each recombinant comprised of 250,000 cells of each line. After polymerization, the cell/collagen mixture was overlaid with growth medium and incubated at 37° C. for 1 hour before implantation.
Xenografting was performed under isoflurane anesthesia. A pocket beneath the back skin was formed using surgical scissors, with an oblique incision (<1 cm) made on the capsule surface parallel and adjacent to the long axis of each kidney. Cells were injected under the capsule with a blunt 25-gauge needle and a glass Hamilton syringe via a transrenal injection, forming a starting tumor with a volume of 1 to 2 mm^3. The kidney was returned to the retroperitoneal space and the skin was closed with surgical staples. The growth of xenografts was assessed at weekly intervals using ultrasound instruments. Animals were sacrificed at 2-8 weeks post transplantation, based on the tumor burden and pathological progression of tested animals. Upon dissection, tumor volume (V) was measured and calculated according to the tumor length (1) and width (w) by the following formula: V=(π/6)×((l+w)/2)^3 (Anand et al., Nat. Genet 31:301-305, 2002). Tumors were snap-frozen or processed conventionally for formalin fixation. Resulting sections were used for hematoxylin/eosin staining, and immunostaining for selected gene expression markers.
For chemoresistance studies, ICR SCID mice received subrenal capsule xenografts by implantation according to the procedure described above. After surgery, mice were given standard laboratory diets and water ad libitum for 2 weeks, to allow tumor uptake and growth initiation. Starting from the 3rd week (when tumor sizes reached from about 4 to about 8 mm in diameter), mice received Mitoxantrone at a dose of 0.2 mg/kg by i.p. injection, or vehicle control, on day 1 of week 3, week 5, and week 7 (Alderton et al., Cancer Res. 52:194-201, 1992). Between 8 and 12 mice were randomly assigned to each study arm. A total regimen of 3 2-week cycles was administered. After the final treatment cycle the mice were sacrificed, kidneys were removed for tumor measurement and histological analysis. The cumulative Mitoxantrone dose received per mouse was 0.6 mg/kg. Each experimental arm comprised 5-8 mice per treatment cohort.

Test [9] relates to Wnt16b. As to the kind of experiment: Systemic effect of MIT on Wnt16b expression in mouse organs (Western immunoblot). To be noted: mice, three MIT treatments over eight weeks. The format is in vivo. On the procedure:
To determine the systemic effects of MIT treatment on Wnt16b expression, parallel experiments involved administering MIT or vehicle as per the treatment schema above, to cohorts of mice (n=6) without xenografts. At the completion of the 8-week treatment regimen, mice were euthanized and various tissues were rapidly resected and snap frozen or fixed in formalin. Following protein isolations, Western immunoblot analysis was performed for Wnt16b expression, as described above.

Test [10] deals with PC3 cells. Kind of test: Acute in vivo response to MIT: cleaved caspase 3 IHC in xenografts. As to conditions: 24 hours after MIT. Also on record: species or system mouse. As for the experimental part: For assessments of the acute effects of chemotherapy, mice harboring xenografts of PC3 cells combined with PSC27 fibroblasts were treated with Mitoxantrone 0.2 mg/kg by i.p. injection, or vehicle control. Xenografts were collected 24 hour after treatment and tissues were processed for IHC. Apoptosis was assessed by staining with anti-caspase 3 antibody (cleaved, BioCare Medical). On adjacent sections, immunostaining with anti-γH2AX (Upstate) was performed to quantitate cells with DNA-damage.

As to TNF-α, the WNT16B reporter activity result in test [1] is “induced”.

For `Oc1nc(-c2ccc(C(F)(F)F)cc2)nc2c1CSCC2` [XAV939], in test [2], the “proliferative effect of the PSC27-RAD DDSP (full DDSP CM)” value was “markedly attenuated; also recorded: attenuates” and the “proliferative response induced by WNT16B (PSC27^WNT16B CM)” value is recorded as “completely suppressed; also recorded: suppresses”. Moreover, in [3], the “attenuation of MIT apoptotic response by PSC27^WNT16B-conditioned medium” value was “blocked”. Besides, in test [4], the “invasive effect of the PSC27-RAD DDSP (full DDSP)” value is reported as “markedly attenuated; also recorded: attenuates” and the “invasive response induced by WNT16B” value is on record as “completely suppressed; also recorded: suppresses”. For the same compound, in [5], the “WNT16B-induced EMT-associated gene expression” value is “blocked”. For the same compound, in test [6], the “effects of PSC27-RAD-conditioned medium on promoting tumor cell survival” value is given as “attenuated”.

Regarding bleomycin, the “number of γ-H2AX foci” value in test [7] is “substantially increased”.

For `O=C1c2c(O)ccc(O)c2C(=O)c2c(NCCNCCO)ccc(NCCNCCO)c21` [MIT, mitoxantrone], in test [8] (BPH-1 or PC3 plus PSC27^WNT16B or PSC27^C fibroblasts, three cycles of MIT), the “tumor volumes, MIT vs no MIT” value is listed as “significantly reduced”. The “tumor volume after MIT” value in test [8] (PC3 + PSC27^C+shRNA^C grafts) came out at 20 mm^3; in test [8] (PC3+PSC27-RAD grafts (300 mm^3 without MIT)) it was 55 mm^3; in test [8] (PC3+PSC27^C grafts), 13 mm^3; in [8] (PC3+PSC27^WNT16B grafts) it was 78 mm^3. For the same compound, the “tumor size, MIT-treated vs untreated mice” value in test [8] (tumor cells with unirradiated PSC27 fibroblasts (PSC27^C)) was “substantially smaller”. The “expression of WNT16B protein in prostates, breasts and ovaries” value in test [9] was “induced”. Further, the “apoptotic cells (cleaved caspase 3 IHC)” value is on record as 34% in test [10] (PC3+PSC27^C grafts) and 14% in test [10] (PC3+PSC27^WNT16B tumors). In addition, the “number of γ-H2AX foci” value in [7] is “substantially increased”.

Take `OO` [hydrogen peroxide]: the “number of γ-H2AX foci” value in test [7] is reported as “substantially increased”.
